Test system: MDA-MB-468 complex spheroids with HUVEC/MSC, viability
Test: Anticancer human tumor MDA-MB-468 cell line growth inhibition;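 note: spheroids exposed to agents for seven days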;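 for viability, T/C: 100% = DMSO vehicle control viability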
Conditions: for IC50: curve of first compound; for viability, T/C: stronger effect = lower value
Excerpt: Multicellular complex tumor spheroid response to LSD1 Inhibitor Iadademstat in combination with a variety of drugs and investigational agents in selected tumor cell lines
The current study was undertaken to assess response to LSD1 inhibitors in combination with standard-of-care drugs and investigational agents in solid tumor complex spheroid models as well as in the K-562 leukemia. Complex spheroids include a stromal component modeled by human endothelial cells (HUVEC) and fibroblasts modeled by human mesenchymal stem cells (MSCs). The concentration ranges selected for each drug and investigational agent were based upon clinically achievable concentrations if the clinical Cmax of the agent was known.
Compounds. The drugs and investigational agents used in this study are listed on Table 1. All of the agents used, including staurosporine (NSC755774) and gemcitabine (NSC613327), were obtained from the Developmental Therapeutics Program, NCI. FDA-approved anticancer drugs are available from the NCI at http://dtp.nci.nih.gov/branches/dscb/oncology_drugset_explanation.html. Drugs and investigational agents were >95% pure by proton nuclear magnetic resonance (NMR) and liquid chromatography/mass spectrometry (LC/MS). Stock solutions were prepared at 400x in DMSO, stored at -70 degrees C, and diluted in fresh medium prior to their use. The final concentration of DMSO in cell culture wells never exceeded 0.25% (v/v). The FDA-approved anticancer drug set is available from the Developmental Therapeutics Program at https://dtp.cancer.gov/organization/dscb/obtaining/available_plates.htm. All drugs and investigational agents were tested over a range starting from a high concentration at or near the clinical Cmax and decreasing in half-log increments. If the clinical Cmax for an agent had not been determined, the highest concentration tested was 10 microM.
Cell Lines. The patient-derived cancer cell (PDC) lines: 292921-168-R-J2-PDC, K24384-001-R-PDC, and 521955-158-R2-J5-PDC pancreatic carcinomas, 556581-035-R-J1 ovarian carcinoma, 324938-238-R-J1-PDC, 855422-203-R-J1-PDC and 883617-216-R-J1-PDC urothelial bladder carcinomas, 743489-274-T-PDC renal cell carcinoma, 138582-R-J1 Merkel cell tumor, K60290-347-R-J1 and K57222-313-R-J1-PDC glioblastomas, 653999-131-R-J2-PDC, LG0703-F948-PDC, and 349418-098-R-PDC non-small cell lung carcinomas, 885512-296-R-J2-PDC, 171881-019-R-J1-PDC breast carcinomas and 186277-243-T-J2-PDC and 233499-124-R-J2-PDC colon carcinomas were obtained from the NCI Patient-Derived Models Repository (PDMR, https://pdmr.cancer.gov). The established cell lines NCI/ADR-RES (RRID:CVCL_14520 and OVCAR-5 (RRID:CVCL_1628) ovarian carcinomas, 786-O (RRID:CVCL_1051) and A498 (RRID:CVCL_A498) renal cell carcinoma, NCI-H211 (ATCC, cat. CRL-5824; RRID:CVCL_1529), NCI-H196 (ATCC, cat. CRL-5823, RRID:CVCL_1509), SW 1271 (ATCC, cat. CRL-2177, RRID:CVCL_1716) and NCI-H1876 (ATCC, cat. CRL-5902, RRID:CVCL_1503) small cell lung carcinomas, MDA-MB-231 (RRID:CVCL_0062) and MDA-MB-468 (RRID:CVCL_0419)breast carcinomas (10-12). Pooled donor human umbilical vein endothelial cells (HUVEC, Lonza, cat. CC-2519) and human mesenchymal stem cells (hMSC, Lonza, cat. PT-2501) were purchased from Lonza (Walkersville, MD).
Cell Culture. All cells were maintained in an incubator at 37 degrees C and 5% CO2 with 95% humidity. The PDC lines were cultured according to standard operating procedures established by the NCI PDMR (https://pdmr.cancer.gov). Briefly all PDCs were thawed and cultured in Matrigel-coated flasks prepared with a working solution of 1X Ham's F-12 nutrient mix, without supplementation (Invitrogen, Waltham, MA, cat. 11765054), 100 U/mL penicillin-streptomycin (Invitrogen, cat. 15140122), and 2.5% Matrigel (Corning Inc., Corning, NY, cat. 354248) for the first three passages. […]

[1] = second compound 0.1 µM, first compound 0.000949 µM
[2] = second compound 0.1 µM, first compound 0.003 µM
[3] = second compound 0.1 µM, first compound 0.00949 µM
[4] = second compound 0.1 µM, first compound 0.03 µM
[5] = second compound 0.1 µM, first compound 0.0949 µM
[6] = second compound 0.1 µM, first compound 0.3 µM
[7] = second compound 0.316 µM, first compound 0.000949 µM
[8] = second compound 0.316 µM, first compound 0.003 µM
[9] = second compound 0.316 µM, first compound 0.00949 µM
[10] = second compound 0.316 µM, first compound 0.03 µM
[11] = second compound 0.316 µM, first compound 0.0949 µM
[12] = second compound 0.316 µM, first compound 0.3 µM
[13] = second compound 1 µM, first compound 0.000949 µM
[14] = second compound 1 µM, first compound 0.003 µM
[15] = second compound 1 µM, first compound 0.00949 µM
[16] = second compound 1 µM, first compound 0.03 µM
[17] = second compound 1 µM, first compound 0.0949 µM
[18] = second compound 1 µM, first compound 0.3 µM
[19] = second compound 3.16 µM, first compound 0.000949 µM
[20] = second compound 3.16 µM, first compound 0.003 µM
[21] = second compound 3.16 µM, first compound 0.00949 µM
[22] = second compound 3.16 µM, first compound 0.03 µM
[23] = second compound 3.16 µM, first compound 0.0949 µM
[24] = second compound 3.16 µM, first compound 0.3 µM
[25] = second compound 10 µM, first compound 0.000949 µM
[26] = second compound 10 µM, first compound 0.003 µM
[27] = second compound 10 µM, first compound 0.00949 µM
[28] = second compound 10 µM, first compound 0.03 µM
[29] = second compound 10 µM, first compound 0.0949 µM
[30] = second compound 10 µM, first compound 0.3 µM

## CCc1c2c(nc3ccc(O)cc13)-c1cc3c(c(=O)n1C2)COC(=O)[C@]3(O)CC + NC1CC1c1ccc(-c2cccc(O)c2)cc1
Second compound 0.1 µM
  IC50: < 0.000949 µM
Second compound 0.316 µM
  IC50: < 0.000949 µM
Second compound 1 µM
  IC50: < 0.000949 µM
Second compound 3.16 µM
  IC50: < 0.000949 µM
Second compound 10 µM
  IC50: < 0.000949 µM
[1]
  viability, T/C: 4.36%
[2]
  viability, T/C: 3.78%
[3]
  viability, T/C: 2.14%
[4]
  viability, T/C: 0.44%
[5]
  viability, T/C: 0.43%
[6]
  viability, T/C: 0.53%
[7]
  viability, T/C: 4.17%
[8]
  viability, T/C: 3.69%
[9]
  viability, T/C: 1.95%
[10]
  viability, T/C: 0.43%
[11]
  viability, T/C: 0.4%
[12]
  viability, T/C: 0.49%
[13]
  viability, T/C: 3.6%
[14]
  viability, T/C: 3.54%
[15]
  viability, T/C: 2.31%
[16]
  viability, T/C: 0.52%
[17]
  viability, T/C: 0.36%
[18]
  viability, T/C: 0.52%
[19]
  viability, T/C: 4.14%
[20]
  viability, T/C: 3.66%
[21]
  viability, T/C: 2.43%
[22]
  viability, T/C: 0.36%
[23]
  viability, T/C: 0.43%
[24]
  viability, T/C: 0.47%
[25]
  viability, T/C: 4.14%
[26]
  viability, T/C: 3.24%
[27]
  viability, T/C: 2.07%
[28]
  viability, T/C: 0.38%
[29]
  viability, T/C: 0.56%
[30]
  viability, T/C: 0.6%

## Nc1ccn(C2OC(CO)C(O)C2(F)F)c(=O)n1 (stereo not given) + NC1CC1c1ccc(-c2cccc(O)c2)cc1
Second compound 0.1 µM
  IC50: < 0.000949 µM
Second compound 0.316 µM
  IC50: < 0.000949 µM
Second compound 1 µM
  IC50: < 0.000949 µM
Second compound 3.16 µM
  IC50: < 0.000949 µM
Second compound 10 µM
  IC50: < 0.000949 µM
[1]
  viability, T/C: 33.8%
[2]
  viability, T/C: 14.3%
[3]
  viability, T/C: 4.63%
[4]
  viability, T/C: 3.79%
[5]
  viability, T/C: 3.9%
[6]
  viability, T/C: 3.38%
[7]
  viability, T/C: 34.3%
[8]
  viability, T/C: 14.2%
[9]
  viability, T/C: 4.2%
[10]
  viability, T/C: 3.68%
[11]
  viability, T/C: 3.51%
[12]
  viability, T/C: 3.68%
[13]
  viability, T/C: 32.4%
[14]
  viability, T/C: 12.8%
[15]
  viability, T/C: 4.05%
[16]
  viability, T/C: 3.61%
[17]
  viability, T/C: 3.27%
[18]
  viability, T/C: 3.33%
[19]
  viability, T/C: 28.3%
[20]
  viability, T/C: 11.9%
[21]
  viability, T/C: 4.05%
[22]
  viability, T/C: 3.61%
[23]
  viability, T/C: 3.53%
[24]
  viability, T/C: 3.69%
[25]
  viability, T/C: 24.4%
[26]
  viability, T/C: 12.5%
[27]
  viability, T/C: 4.33%
[28]
  viability, T/C: 3.84%
[29]
  viability, T/C: 3.5%
[30]
  viability, T/C: 3.65%

## O=C(c1cc(Cc2n[nH]c(=O)c3ccccc23)ccc1F)N1CCN(C(=O)C2CC2)CC1 + NC1CC1c1ccc(-c2cccc(O)c2)cc1
Second compound 0.1 µM
  IC50: 0.909 µM
Second compound 0.316 µM
  IC50: 0.84 µM
Second compound 1 µM
  IC50: 0.645 µM
Second compound 3.16 µM
  IC50: 0.677 µM
Second compound 10 µM
  IC50: 0.144 µM
Second compound 0.1 µM, first compound 0.0316 µM
  viability, T/C: 93.6%
Second compound 0.1 µM, first compound 0.1 µM
  viability, T/C: 88.1%
Second compound 0.1 µM, first compound 0.316 µM
  viability, T/C: 70.5%
Second compound 0.1 µM, first compound 1 µM
  viability, T/C: 52.7%
Second compound 0.1 µM, first compound 3.16 µM
  viability, T/C: 18.6%
Second compound 0.1 µM, first compound 10 µM
  viability, T/C: 14.2%
Second compound 0.316 µM, first compound 0.0316 µM
  viability, T/C: 88.6%
Second compound 0.316 µM, first compound 0.1 µM
  viability, T/C: 88.2%
Second compound 0.316 µM, first compound 0.316 µM
  viability, T/C: 76%
Second compound 0.316 µM, first compound 1 µM
  viability, T/C: 46.2%
Second compound 0.316 µM, first compound 3.16 µM
  viability, T/C: 16.2%
Second compound 0.316 µM, first compound 10 µM
  viability, T/C: 11.9%
Second compound 1 µM, first compound 0.0316 µM
  viability, T/C: 98.2%
Second compound 1 µM, first compound 0.1 µM
  viability, T/C: 82.3%
Second compound 1 µM, first compound 0.316 µM
  viability, T/C: 66.7%
Second compound 1 µM, first compound 1 µM
  viability, T/C: 43.4%
Second compound 1 µM, first compound 3.16 µM
  viability, T/C: 13.9%
Second compound 1 µM, first compound 10 µM
  viability, T/C: 8.61%
Second compound 3.16 µM, first compound 0.0316 µM
  viability, T/C: 82%
Second compound 3.16 µM, first compound 0.1 µM
  viability, T/C: 75.4%
Second compound 3.16 µM, first compound 0.316 µM
  viability, T/C: 72.5%
Second compound 3.16 µM, first compound 1 µM
  viability, T/C: 38.7%
Second compound 3.16 µM, first compound 3.16 µM
  viability, T/C: 12.5%
Second compound 3.16 µM, first compound 10 µM
  viability, T/C: 7.33%
Second compound 10 µM, first compound 0.0316 µM
  viability, T/C: 63%
Second compound 10 µM, first compound 0.1 µM
  viability, T/C: 51.4%
Second compound 10 µM, first compound 0.316 µM
  viability, T/C: 43.6%
Second compound 10 µM, first compound 1 µM
  viability, T/C: 26.6%
Second compound 10 µM, first compound 3.16 µM
  viability, T/C: 13.8%
Second compound 10 µM, first compound 10 µM
  viability, T/C: 8.66%
